Columns and labels:
endogenous LPL = assay: Phosphorylation of endogenous (cellular) LPL in osteoclasts (LPL immunoprecipitation, p-Serine immunoblot); type: cell-based, mouse; details: sNT-LPL peptides, 3-4 hours, bone particles and TNF-α
Procedure: Bone particles (60-80 μm in size) were prepared as described previously (Ma et at, 2010, J. Biol. Chem., 285: 29911-29924). After flushing the marrow cells for osteoclast differentiation as described above, long bones of mice (free of cells inside and muscles outside) were washed extensively with PBS and kept in ethanol until use. Long bones were air-dried in the hood and homogenized by a mini blender. Bone particles were sieved and used for experiments. Multinucleated osteoclasts were seen from day four onward. At this time cultures were added with bone particles (100 μg/ml media) for 3-4 hours or 12-14 hours in the presence of TNF-α (20 ng/ml). Some cultures were treated with 3-5 μg/ml TNFR1 antibody. Osteoclasts were preincubated with the TNFR1 antibody for 60-90 minutes before the addition of TNF-α to enhance the blocking effect. Osteoclasts incubated with bone particles for 3-4 or 12-14 hours in the presence of TNF-α were used for lysate preparations.
The vector pTAT-HA has an N-terminal 6-histidine leader (Nagahara et al., 1998, Nature Medicine, 4:1449-1452). […] For transduction with TAT-fused peptides (100-150 nM), osteoclasts were first kept in serum-free α-MEM for two hours. Afterward, TAT proteins of interest, bone particles, and TNF-α were added to cells in serum-free α-MEM Lysates were made from these cells for immunoprecipitation and immunoblotting analyses. Osteoclasts plated on dentine slices in the presence of TAT-proteins of interest and TNF-α for 3-6 hours or 12-14 hours were used for immunostaining or actin staining analyses. Osteoclast cultures treated only with TNF-α were used as controls.
Following various treatments, osteoclasts were washed three-times with cold PBS and lysed in a radioimmune precipitation buffer (RIPA; 10 mM Tris-HCl, pH 7.2, 150 mM NaCl, 1% deoxycholate, 1% Triton X-100, 0.1% SDS, 1% aprotinin, 2 mM PMSF, […], and 1% aprotinin). Cells were rocked on ice for 15 minutes and scraped off with a cell scraper. Cell lysates were centrifuged at 15,000 rpm for 5 minutes at 4° C., and the supernatant was saved. Protein contents were measured using Bio-Rad protein assay reagent. Equal amounts of lysate proteins (100-150 μg) were used for immunoprecipitations. Immunoprecipitations and Western blotting were done as described previously (Chellaiah et al., 1998, J. Biol. Chem., 273: 11908-11916; Chellaiah et al., 1996, Mol. Biol. Cell, 7: 743-753).
After cells were kept in the serum-free α-MEM medium for two hours, LPL peptides of interest were added to a final concentration of 100-150 nM to cells in serum-free media (Chellaiah et al, 2000, J. Biol. Chem., 275: 11993-12002). Osteoclasts transduced with peptides of interest and added with bone particles in the presence of TNF-α for 3-4 hours or 12-14 hours were used for lysate preparations. Cells plated on coverslips and treated with peptides were used for actin staining to detect podosomes. After transduction for 30 min., osteoclasts were re-plated on dentine slices with respective LPL peptide and TNF-α for 3-6 hours or 12-14 hours. These cells were used for Actin staining with rhodamine-phalloidin or immunostaining analyses (Chellaiah et al., 2000, J. Biol. Chem., 275: 11993-12002; Chellaiah et al., 2000, J. Cell. Biol., 148: 665-678; Chellaiah et al., 2003, J Biol Chem 278: 29086-29097).
Following various treatments, osteoclasts were washed three times with cold PBS and lysed in a Triton-containing lysis buffer as described (Chellaiah et al., 1996, Mol. Biol. Cell, 7: 743-753). Cells were rocked on ice for 15 minutes, and scraped off with a cell scraper. Cell lysates were centrifuged at 15,000 rpm for 5 minutes, at 4° C., and the supernatant was saved. Protein contents were measured using Bio-Rad protein assay reagent. Osteoclast cultures were also subjected to a trypan blue dye (Sigma T8154) exclusion test to determine the viability of osteoclasts after various treatments. […]

osteoclasts = assay: F-actin content by rhodamine phalloidin binding; type: cell-based, mouse; details: sNT-LPL peptides; compared with P2, P5, and P6
Procedure: For the measurement of F-actin, osteoclasts transduced with TAT-LPL peptides of interest for 15 to 30 minutes were re-plated on dentine slices for 3 to 4 hours or 10-12 hours, respectively, in the presence of indicated TAT-fused peptides of interest and TNF-α. For each treatment four to six wells in 24 well, culture dishes were used. Cells were fixed and rhodamine phalloidin binding to F-actin was done as described (Chellaiah et al., 2000, J. Cell Biol., 148: 665-678; Chellaiah et al., 2000, J. Biol. Chem., 275: 11993-12002: Chellaiah et at, 2007, J. Biol. Chem., 282: 10104-10116),
Osteoclasts were transduced with LPL and control peptides. For each treatment four to six wells in 24 well culture dishes were used. Cells were fixed and rhodamine phalloidin binding to F-actin was done as described (Chellaiah et al., 1998, J. Biol. Chem., 273: 11908-11916; Chellaiah et al., 1996, Mol. Biol. Cell, 7: 743-753).

F-actin level (osteoclasts) | Sequence | inhibitory effect on the phosphorylation of cellular LPL (endogenous LPL)
decreased | MARGAVSDEE [Peptide P3, TAT-fused sNT-LPL peptide, Ser-5 substituted with Ala (A5S7)] | varied inhibitory effects
decreased | MARGSVADEE [Peptide P4, TAT-fused sNT-LPL peptide, Ser-7 substituted with Ala (S5A7)] | varied inhibitory effects

From patent US11485762B2, “Compositions and methods for inhibition of L-plastin activity in osteoclasts to reduce bone loss” (University of Maryland, Baltimore, priority 2017, dated 2022)
